Source: patent US20210371483A1, “Composition for Inactivating Spores by Means of Antimicrobial Peptides” (Robert Bosch Gesellschaft Fur Medizinische Fruschung mbH, priority 2016, published 2021)
“Also recorded” adds a separate entry of the source. Where no end group is shown, it is not given here.

What was measured:
Type in all cases: cell-based, Clostridium difficile
[1] = system: C. difficile spores; experiment: Incubation of C. difficile spore suspension with antimicrobial peptides, plating and counting of germinated spores; settings: spore suspension (at least 70% spores) incubated 60 minutes with peptide; plated on Columbia blood agar, anaerobic at least 4 days
Procedure: (§1) The effects of antimicrobial peptides on C. difficile spores were investigated by first enriching a bacterial suspension with spores so that at least 70% spores were present. The spore suspension was incubated for 60 minutes with various defensins (HBD1, HBD2, HBD3) and the cathelicidin LL37 (recombinant defensins: Peptanova Sandhausen, HBD1 order No. 4337; HBD2; 4338, HBD3 4382/recombinant LL37: Innovagen Lund Sweden, order No. SP-LL-37-1). Thereafter, aliquots of the samples were plated out on Columbia blood agar and incubated anaerobically for at least 4 days. The germinated spores in an untreated control and the preparations containing antimicrobial peptides were counted.

[2] = system: C. difficile spores; experiment: Spore germination experiment repeated with wash-out of the peptides after incubation; settings: peptides washed out at end of incubation, medium free of peptides
Procedure: as §1
In order to able to establish with certainty whether either germinating bacteria are rapidly killed by the presence of antimicrobial peptides in the medium or the spores are in fact prevented from germinating, the experiment was repeated, but at the end of the incubation time, the peptides were washed out and the medium was free of peptides.

[3] = system: C. difficile spores; experiment: Spore germination after incubation, wash-out and heat killing of residual vegetative cells (FIG. 1); settings: for decrease in germinating spores: incubation, wash-out, heat 61° C., 30 min, as a function of peptide concentration
Procedure: as §1
In further experiments, the inventers wanted to make the unambiguous assignment that resultant bacterial colonies can be attributed with certainty to the germinated spores and not to the steady growth of residual vegetative cells. To this end, incubation and wash-out were followed by killing the residual vegetative cells using heat (61° C., 30 min). This heat treatment kills only the vegetative cells, but not the spores.

[4] = system: C. difficile spores; experiment: Electron microscopy of C. difficile spores incubated with gold-labeled HBD3 peptides (FIGS. 2 and 3)

Substance	germinated spores in comparison with the controls [1]	inhibitory effect on spore germination despite wash-out [2]	difference between the effect of LL37 and HBD3 ([3]; at larger concentrations (10 μg/mL))	difference between the effect of LL37 and HBD3 ([3]; at low concentrations)	decrease in germinating spores [3]	number of germinating spores ([3]; 2.5 μg/mL peptide, after wash-out and heat treatment)	efficacy compared with the other effective peptide ([3]; in lower concentrations, after wash-out and heat treatment)	structural destruction of the spores [4]	penetration into the spores ([4]; gold-labeled HBD3 peptides)
cathelicidin LL-37 [LL37]	significantly fewer germinated spores	maintained	hardly noticeable	distinct difference	concentration-dependent decrease in germinating spores	–	–	–	–
human beta-defensin-3 (GIINTLQKYYCRVRGGRCAVLSCLPKEEQIGKCSTRGRKCCRRKK; ends and bridges not checked; cysteine pairing not given here; UniProt P81534 23-67, looked up) [HBD3, Human beta-defensin 3, protein composed of 45 amino acids, net charge +11; recombinant, Peptanova order No. 4382]	significantly fewer germinated spores	maintained	–	–	concentration-dependent decrease in germinating spores	greatly lowering the number of germinating spores	somewhat higher efficacy	destroyed structurally; also recorded: destroys parts of the spore structure	able to penetrate into the spores; also recorded: penetrates into the exosporium
